Entries after “also recorded” stand apart in the source; their conditions may differ.
Experiments:
γH2AX foci = assay: γH2AX nuclear foci by immunofluorescence in FFPE PDX tumors; format: in vivo, mice
Method: (§1) The following primary antibodies were used for immunofluorescence: rabbit anti-RAD51 (Santa Cruz Biotechnology H-92, dilution 1:250), rabbit anti-RAD51 Ab from Cell Signalling Technologies (CST #8875, dilution 1:25 from a 83 μg/ml stock), rabbit anti-RAD51 Ab from Abcam (ab-133534, dilution 1:1000), mouse anti-Geminin (NovoCastra NCL-L, 1:100 in PDX samples, 1:60 in patient samples), rabbit anti-Geminin (ProteinTech 10802-1-AP, 1:400), mouse anti-BRCA1 (Santa Cruz Biotechnology D-9, 1:50 for C-term; or Abcam MS110, 1:200 for N-term), and mouse anti-γH2AX (Millipore JBW301, 1:200). The secondary antibodies used were: goat anti-rabbit Alexa fluor 568 (Invitrogen; 1:500), goat anti-mouse Alexa fluor 488 (Invitrogen; 1:500), goat anti-mouse Alexa fluor 568 (Invitrogen; 1:500) and goat anti-rabbit Alexa fluor 488 (Invitrogen; 1:500).
(§2) Thin tissue sections were deparaffinized with xylene and hydrated with decreasing concentrations of ethanol. […]
(§3) RAD51 was quantified by scoring: a) the percentage of tumor cells with RAD51 nuclear foci, b) the percentage of γH2AX foci positive cells with RAD51 foci, or c) the percentage of geminin positive cells with RAD51 foci, as indicated in the Figures. […] Optimally, one-hundred geminin or γH2AX foci-positive cells from at least 3 different and representative areas of each sample were analyzed. […]

RAD51 foci = assay: RAD51 nuclear foci by immunofluorescence in FFPE PDX tumors; format: in vivo, mice
Method: as §1, §2, §3

[1] = system: patient-derived tumor xenografts (PDXs) of breast, ovarian and pancreatic cancer; assay: In vivo PDX sensitivity to PARPi (antitumor activity by RECIST on % tumor volume change); design: species or system mice
Method: Fresh tumor samples from patients with breast or high-grade serous ovarian cancer were prospectively collected for implantation into nude mice under protocols approved by Vall Hebron's institutional review board (IRB), Institut Curie or Institut Paoli-Calmettes. Experiments were conducted following the European Union's animal care directive (2010/63/EU) and were approved by the Ethical Committee of Animal Experimentation of the Vall d'Hebron Research Institute (Barcelona, Spain) or by the Ethical Committee of Animal Experimentation CEEA-51 (Evry, France). Fresh primary or metastatic human tumors were obtained from patients at time of surgery or biopsy and immediately implanted into the mammary fat pad (surgery samples) or the lower flank (metastatic samples) of 6-week-old female athymic HsdCpb:NMRI-Foxnlnu mice (Harlan Laboratories). Animals were continuously supplemented with 1 μM 17b-estradiol (Sigma-Aldrich) in their drinking water. Upon growth of the engrafted tumors, the model was perpetuated by serial transplantation onto the lower flank. In each passage, flash-frozen and formalin-fixed paraffin embedded (FFPE) samples were taken for genotyping and histological studies.
To evaluate the sensitivity to PARP inhibition, tumor-bearing mice were equally distributed into treatment groups of 5 to 10 mice with tumors ranging 70 to 300 mm3. Olaparib 50 mg/kg or 100 mg/kg, Niraparib 75 mg/kg or 50 mg/kg, or Veliparib 100 mg/kg were administered per gavage (p.o.) daily (in 10% v/v DMSO/10% w/v Kleptose [HP-β-CD]). Tumor growth was measured with caliper bi-weekly from first day of treatment to day 21 and every 7-10 days in the acquired resistance setting. To generate PDX models with acquired resistance to PARPi, olaparib treatment was maintained for up to 150 days in olaparib-sensitive tumors until individual tumors regrew. In all experiments, mouse weight was recorded twice weekly. The tumor volume was calculated as V=4π/3/Lx12, “L” being the largest diameter and “1” the smallest. Mice were euthanized when tumors reached 1500 mm3 or in case of severe weight loss, in accordance with institutional guidelines. The antitumor activity was determined by comparing tumor volume at 21 days to its baseline: % tumor volume change=(V21 days−Vinitial)/Vinitial×100. For olaparib-sensitive PDX, the best response was defined as the minimum value of % tumor volume change sustained for at least 10 days. To classify the antitumor response, the Response Evaluation Criteria In Solid Tumors (RECIST) criteria on the % tumor volume change was followed: CR (complete response), best response<−95%; PR (partial response), −95<best response<−30%; SD (stable disease), −30%<best response<+20%, PD (progressive disease), best response>+20%.

With O=C(c1cc(Cc2n[nH]c(=O)c3ccccc23)ccc1F)N1CCN(C(=O)C2CC2)CC1 [olaparib] the “γH2AX foci formation, percentage of tumor cells with γH2AX nuclear foci” value (γH2AX foci; treated vs vehicle PDX tumors, sensitive and resistant groups (FIG. 2A)) was “increased; also recorded: induces”, the “γH2AX foci formation in geminin-positive cells” value (γH2AX foci; treated vs vehicle, both sensitive and resistant tumors (FIG. 2B)) was “increased; also recorded: significantly increases” and the “percentage of RAD51 foci/geminin-positive cells (RAD51 score)” value (RAD51 foci; olaparib-treated samples from resistant PDX models (FIG. 2C)) was “significantly increased”. The “RAD51 foci formation, percentage of tumor cells with RAD51 nuclear foci” value (RAD51 foci; treated vs vehicle, olaparib-resistant PDX models (FIG. 2A)) was “increased; also recorded: only significantly induced in the olaparib resistant PDX models”, the “number of PDX models in which treatment exhibited antitumor activity as assessed by RECIST” value ([1]; of 44 PDX models (39 BrC, 3 HGSOC/OvC, 2 PaC), p.o. daily, CR/PR/SD) was “ten” and the “number of PDX models with complete response (CR)” value ([1]; of 44 PDX models, CR: best response <-95% tumor volume change) was 6. The “number of PDX models with progressive disease (PD), olaparib-resistant” value ([1]; of 44 PDX models, PD: best response >+20%) was 34 and the “number of PDX models with partial response (PR)” value ([1]; of 44 PDX models, PR: -95<best response<-30%) was 2.

Source: US12007393B2, “Methods based on the detection of RAD51 foci in tumor cells” (Fundació Privada Institut D'Investigació Oncològica De Vall …, priority 2017, dated 2024)
